PMC4428838, “Optimization of Invasion-Specific Effects of Betulin Derivatives on Prostate Cancer Cells through Lead Development” (PLoS ONE, 2015)

Experiments:
Format in all cases: cell-based
[1] = test system: PC-3 cells; test: Primary 3D screen in Matrigel ECM, morphometric image analysis (AMIDA) of invasion, growth and cell death; details: for anti-invasive effects in 3D culture (in words): 0.03-1 μM; for concentration suppressing the invasive transformation (roundness %): PC-3 spheroids, over 6 days
[2] = test system: LAPC-4; test: Secondary 3D screen (spheroid size, complexity, cell death); details: yellow and red clusters
Excerpt: Next, the 25 selected betulin derivatives depicted in Figs 1–3 including control compounds were again thoroughly tested across the same panel of prostate-derived cell lines already used in the preliminary, 2D high-throughput screen. The resulting dendrograms were either generated separately for each cell line (S4 Fig), combined into a single dendrogram (Fig 5A), or shown as reduced organoid sizes (area; Fig 5B).
Fig 5 Secondary 3D screens. Experimental betulin derivatives and control compounds were tested across a panel of prostate cancer lines (LNCaP, LAPC-4) and non-transformed, prostate epithelial cells (EP156T) in 3D culture. A) The dendrogram is based on three main morphological parameters and combines all data from primary and secondary 3D screens. […] B) Boxplots showing the impact of selected compounds on spheroid size (Area). Data scaling: as described in Fig 4 C) Effects of all betulin derivatives and control compounds on cell death (number of dead cells).
All 3D cultures were done in growth factor-free Matrigel Basement-membrane Matrix (Corning Inc., New York, NY, USA) using 96-well Angiogenesis μ-plates (ibidi GmbH, Munich, Germany) as described before.[38] “Sandwich” assays in short: bottom wells of cooled Angiogenesis plates were filled with 10 μL 4 mg/mL Matrigel, centrifuged for 20 min 200 g and incubated at 37°C temperature for approximately 30–60 min or until the ECM had polymerized. 1,000–1,500 cells were mixed in 2 mg/mL ECM-medium, and 20 μL of cell suspension was added in each well. The plates were centrifuged for 10 min at 100 g, or until the cells had settled on top of the lower ECM. Finally, the outer wells and side reservoirs were filled with water for humidification, and the culture plates placed into the incubator for 3–4 h or overnight. The following day, 60 μL of cell culture medium were added; refreshed every third day by carefully aspirating the medium. This “sandwich” setting allows almost unifocal alignment of cells and 3D structures in a single optical plane, thus reducing the time required for confocal stack imaging.
All control compounds were purchased from Selleck (Munich, Germany), except for staurosporine (Sigma-Aldrich, St. Louis, MO, USA) and Y-27632 (Tocris, Bristol, UK) and dissolved in dimethyl sulfoxide (DMSO) as a vehicle at 10 mM. In the primary and secondary 3D screens, experimental and control compound exposures were performed in triplicates. Four concentrations for each compound were applied (0.03, 0.1, 0.3 and 1 μM). Compound treatments were initiated four days after cell embedding, and continued for six days after which spheroids were stained and imaged.
Supplementary file pone.0126111.s004.eps: S4 Fig Secondary screens. Dendrograms for A) LNCaP, B) LAPC-4, and C) Ep156T betulin screens in 3D culture have been constructed using three main read-outs: spheroid size, spheroid complexity, and cell death. […] (EPS) Click here for additional data file.

[3] = test system: PC3 cells; test: Cell morphology and actin cytoskeleton in 2D monolayer culture; details: PC3, 2D, 72h
Method: As a control, we also tested morphologies treated with the same panel of anti-invasive compounds 4, 5, 6, 16 and 20 as well as betulin (1) on PC3 cells grown in 2D monolayer cultures (S9 Fig).
Supplementary file pone.0126111.s009.tif: S9 Fig Morphologies of PC-3, LNCaP and Ep156T cells in 2D monolayer culture, exposed 72h to selected betulin derivatives. Actin cytoskeleton (filamentous or F- actin) is stained green (LifeAct), nuclei with a red dye (confocal microscope images, 40× objective, scale bar shown for each panel on the right lower corner). (TIF) Click here for additional data file.

[4] = PC-3 in 3D Matrigel, 6 days treatment

| SMILES | anti-invasive effects in 3D culture (in words) [1, 4] | efficacy in 3D LAPC-4 culture (dendrogram clusters) [2] | morphology and actin cytoskeleton of cells in 2D monolayer [3] | concentration suppressing the invasive transformation (roundness %) [1] | effect on morphometric measures (area, complexity, dead cells) ([1]; PC-3 in 3D Matrigel, paclitaxel at 30 and 100 nM) | concentration at which anti-invasive effects are seen in 3D [1, 4] [nM] |
| --- | --- | --- | --- | --- | --- | --- |
| C=C(C)[C@@H]1CC[C@]2(C(=O)O)CC[C@]3(C)C(CCC4[C@@]5(C)Cc6c[nH]nc6C(C)(C)C5CC[C@]43C)C12 (stereo partly shown) [Compound 6] | even more potent and proved to be specifically anti-invasive | most active | No morphologies and visible effects on the actin cytoskeleton |  |  |  |
| C=C(C)[C@@H]1CC[C@]2(C(=O)O)CC[C@]3(C)C(CCC4[C@@]5(C)Cc6ncccc6C(C)(C)C5CC[C@]43C)C12 (stereo partly shown) [Compound 20] | potently anti-invasive at significantly lower concentrations | most active | No morphologies and visible effects on the actin cytoskeleton | over 300 nM |  |  |
| CC(C)[C@@H]1CC[C@]2(C(=O)O)CC[C@]3(C)C(CCC4[C@@]5(C)Cc6cnoc6C(C)(C)C5CC[C@]43C)C12 (stereo partly shown) [Compound 4] |  | most active | No morphologies and visible effects on the actin cytoskeleton |  |  |  |
| CC(=O)O[C@H]1C(=O)[C@@]2(C)[C@H]([C@H](OC(=O)c3ccccc3)[C@]3(O)C[C@H](OC(=O)[C@H](O)[C@@H](NC(=O)c4ccccc4)c4ccccc4)C(C)=C1C3(C)C)[C@]1(OC(C)=O)CO[C@@H]1C[C@@H]2O [Paclitaxel, paclitaxel, reference compound] |  | efficacy of all positive controls |  |  | strong effect on all morphometric measures |  |
| C=C(C)[C@@H]1CC[C@]2(C(=O)O)CC[C@]3(C)C(CCC4[C@@]5(C)Cc6cccnc6C(C)(C)C5CC[C@]43C)C12 (stereo partly shown) [Compound 19] | potently anti-invasive at significantly lower concentrations | most active |  |  |  |  |
| C=C(C)[C@@H]1CC[C@]2(C(=O)O)CC[C@]3(C)C(CCC4[C@@]5(C)Cc6cnoc6C(C)(C)C5CC[C@]43C)C12 (stereo partly shown) [Compound 5] |  |  | No morphologies and visible effects on the actin cytoskeleton | over 300 nM |  | 300 |
